Activity calls are given as the source filed them.
Columns and labels:
[1] = HEK293T cytotoxicity, dose response, cytotoxicity control for miR-122 modulator project, cell-based, inhibitor set, cherry-pick, set 2 (AID 720697); type: functional
[2] = T. cruzi growth inhibition in host cells, dose response, cell-based, plate reader, dry powder, set 2 (AID 652275); type: functional
[3] = HEK293T cytotoxicity, dose response, cytotoxicity control for miR-122 modulator project, cell-based, activator set, cherry-pick (AID 720690); type: functional;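 further: HEK293T human cells scored for general mammalian cytotoxicity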
[4] = miR-122 activators in hepatoma reporter cells, dose response, cell-based, Huh7 psiCHECK-miR122, Renilla luciferase, cherry-picked (AID 651956); type: functional;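 further: huh7 hepatoma cells stably carrying a psiCHECK-2 miR-122 sensor plasmid; renilla luciferase signal reporting endogenous miR-122 activity after 48 h compound exposure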
[5] = molecular target: T1, Trace amine-associated receptor 1 (Homo sapiens, UniProt Q96RJ0); assay: Fluorescence-based cell-based high throughput dose response assay to identify antagonists of the human trace amine associated receptor 1 (TAAR1).; type: functional
T1 sequence (Q96RJ0 whole entry): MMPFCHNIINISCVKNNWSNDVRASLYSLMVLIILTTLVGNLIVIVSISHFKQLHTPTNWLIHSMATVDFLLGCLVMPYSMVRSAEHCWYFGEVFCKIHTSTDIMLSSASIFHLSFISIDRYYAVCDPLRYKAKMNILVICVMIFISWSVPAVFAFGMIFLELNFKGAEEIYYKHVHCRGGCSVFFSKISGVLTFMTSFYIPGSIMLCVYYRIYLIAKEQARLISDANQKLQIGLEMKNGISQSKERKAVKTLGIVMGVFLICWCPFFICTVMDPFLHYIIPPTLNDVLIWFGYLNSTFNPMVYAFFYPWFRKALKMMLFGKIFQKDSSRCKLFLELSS

[6] = Counterscreen for antagonists of the human trace amine associated receptor 1 (hTAAR1): Fluorescence-based cell-based high throughput dose response assay to identify nonselective Ga16 antagonists.; type: functional
[7] = molecular target: T1, Trace amine-associated receptor 1; assay: Counterscreen for antagonists of the human trace amine associated receptor 1 (hTAAR1): Fluorescence-based cell-based high throughput dose response assay to identify TAAR1 Agonists.; type: functional
[8] = Counterscreen for […] of the human trace amine associated receptor 1 (TAAR1): Fluorescence-based cell-based high throughput dose response assay to identify nonselective Ga16 agonists.; type: functional
[9] = T. cruzi intracellular amastigote growth inhibition, dose response, imaging, CA-I/72 strain, bovine embryo skeletal muscle, dry powder (AID 651885); type: functional, cell-based
HeLa = assay: HeLa cell cytotoxicity, dose response, cytotoxicity control, ATP luminescence, cherry-pick samples (AID 687004); type: functional, cell-based; details: Homo sapiens
Cryptococcus neoformans = assay: PubChem AID 686997; type: functional, organism-based
HepG2 = assay: HepG2 Cytotoxicity Assay Measured in Cell-Based System Using Plate Reader - 7071-02_Inhibitor_Dose_CherryPick_Activity.; type: functional; details: Homo sapiens

## CNC(=O)C[C@H]1CC[C@H]2[C@@H](COc3ccc(NC(=O)C4CC4)cc3C(=O)N2C)O1
[1]
  AC50: 2.59 µM (active)

## CC(c1ccc(Cl)cc1)N1CC2(C1)CN(C(C)C)C(=O)c1cccc(NC(=O)c3ccncc3)c1O2 (configuration not stated)
[2]
  AC50: 0.556 µM (active)

## C[C@@H]1CN([C@H](C)CO)S(=O)(=O)c2ccc(C#Cc3ccncc3)cc2O[C@@H]1CN(C)C(=O)Nc1ccc2c(c1)OCO2
[3]
  AC50: 29.8 µM (active)
[4]
  AC50: 4.77 µM (active)

## CCNC(=S)N/N=C/c1cc(C)n(-c2ccc(Cl)cc2)c1C
[5]
  IC50: 1.13 µM (active)
[6]
  IC50: > 29.9 µM (inactive)
[7]
  EC50: 13.6 µM (inactive)
[8]
  EC50: > 29.9 µM (inactive)

## CC(C)N1C[C@H](C)[C@@H](CN(C)C(=O)OC(C)(C)C)Oc2c(C(=O)O)cccc2C1=O
[9]
  IC50: > 20 µM (inactive)

## CCOC(=O)NC(=S)Nc1ccc(C(C)(C)C)cc1Br
HeLa
  AC50: > 52 µM (inactive)
Cryptococcus neoformans
  AC50: > 70 µM (inactive)
HepG2
  AC50: 18.1 µM (active)

Reference: ChEMBL document CHEMBL1201862, “PubChem BioAssay data set” (2004)
